Entries after “also recorded” stand apart in the source; their conditions may differ.
Columns and labels:
[1] = tested on: NOTCH1 (NICD level) in CD133(+) or (−) TICs; test: NOTCH1 processing: NICD produced after EDTA and DAPT treatment, Western blot; format: cell-based; conditions: 20 μM DAPT (4 h) with 5 mM EDTA (20 min), CD133-positive and negative TICs
Description: FIGS. 1M and 1N depict that TBC1D15 affects NOTCH1 processing. • (1M) Western blot analysis for expression of endogenous NOTCH1 and N1ΔE-myc tag in CD133-positive and negative TICs, transfected with N1ΔE-FL and N1ΔE-ΔPEST and treated with vehicle or 20 μM DAPT (for 4 h), and 5 mM EDTA (for 20 min). • (1N) Western blot analysis for endogenous NOTCH1 and N1ΔE-myc tag in CD133-positive and negative TICs, transfected with N1ΔE-FL, N1ΔE-ΔPEST, and N1ΔE-V1745L (inhibition of gamma-secretase cleavage) and treated with vehicle or 20 μM DAPT.
Pin1 is known to promote tumor formation by binding to the NOTCH/NICD STR domain and regulating its activity. To determine how TBC1D15 affects NOTCH1 activity, we tested whether it regulates NOTCH1 processing through a combination of a disintegrin and metalloproteinase (ADAM) 17 and γ-secretase. We overexpressed a membrane-tethered, ligand-independent wild type NOTCH1, a NOTCH1 derivative [NΔE, that is constitutively cleaved by γ-secretase, releasing active NICD (Rustighi et al., EMBO Mol Med 6, 99-119. 10.1002/emmm.201302909)], NΔE-ΔPEST, and NΔE-V1745L in CD133(+) or (−) TICs. We then analyzed the effects of TBC1D15 on endogenous NOTCH1 processing by measuring the amount of NICD produced after ethylenediaminetetraacetic acid (EDTA) and DAPT treatment in vitro.

[2] = tested on: CD133-negative TICs / CD133− Huh7 cells; test: Viability screening, CD133-negative control cells; format: cell-based; conditions: FIG. 7C middle
[3] = tested on: patient HCC; test: Patient-derived xenograft (PDX) model of HCC in NSG mice; format: in vivo
Description: (§1) FIGS. 7A-7G depict that activated NOTCH can be targeted by small molecule inhibitors. • (7A) Analyses of 3D structure of TBC1D15-NOTCH1 interaction identified TBC1D15 N terminal region docking with a.a.1805-2113 of NOTCH1. […] See SEQ ID NOs:6-12 and 1, as depicted. Both were labeled with FITC and used with recombinant TBC1D15 for fluorescence polarization assay. The mutant served as a negative control. […] HA-NUMB-3D is HA-tagged phosphor-mimetic mutant of NUMB protein wherein three serine resides of phosphorylation sites are all replaced with phosphor-mimetic amino acid, D (aspartic acid), to have constitutively phosphorylated status of NUMB protein that reduce the binding ability between NOTCH and NUMB. […] We then tested the therapeutic efficacy of the Inhibitor A in the PDX model of HCC. When the two oncogenic targets were restored by use of AAV vector-mediated co-transduction of both activated N1ICD and phosphormimetic NUMB, the tumor-killing effect of Inhibitor A was negated. Inhibitor A's tumor killing effects are largely dependent upon the inhibition of NOTCH activation and suppressing NUMB phosphorylation status.
PDX mice were treated with the optimum dosing schedule. We monitored tumor sizes weekly three weeks post-transplantation for a total of 4 weeks (until the end of week 7). (If the tumor size reaches a diameter of ≥1.5 cm before 7 wk, we euthanized the mice per the IACUC guideline for tumor-bearing mice.) Our prior experience with the untreated HCC PDX model is 5-7 weeks are needed to generate tumors of the desired size (FIG. 7F). […]
To test the therapeutic efficacy of the new inhibitor for its effect on TBC1D15-NICD interaction, we employed a true patient-derived xenograft (PDX) HCC model (FIG. 7F). We determined if newly identified small molecule inhibitors of the TBC1D15-NICD interaction would prevent tumor growth in the HCC PDX mouse model and specifically if this therapeutic effect was negatively affected by NICD expression, NUMB-3D expression, or the co-expression of NICD and NUMB-3D.

[4] = tested on: primary hepatocytes; test: Viability of primary hepatocytes; format: cell-based; conditions: FIG. 7C middle
Description: as §1

[5] = tested on: NANOG-GFP reporter; test: NANOG-GFP reporter in Huh7 cell line, FACS; format: cell-based; conditions: FIG. 7C right
[6] = tested on: HEY1-CFP reporter (NOTCH-CFP); test: HEY1-CFP (NOTCH-CFP) reporter in Huh7 cell line, FACS; format: cell-based; conditions: FIG. 7C right
[7] = tested on: p53, N1ICD and NANOG protein levels; test: Immunoblots of xenograft tumors; format: in vivo, NSG mice; conditions: Inhibitor A-treated xenograft tumors, FIG. 7G
Description: as §1
PDX mice were treated with the optimum dosing schedule. We monitored tumor sizes weekly three weeks post-transplantation for a total of 4 weeks (until the end of week 7). (If the tumor size reaches a diameter of ≥1.5 cm before 7 wk, we euthanized the mice per the IACUC guideline for tumor-bearing mice.) Our prior experience with the untreated HCC PDX model is 5-7 weeks are needed to generate tumors of the desired size (FIG. 7F). Experimental animals were euthanized at the end of the seven weeks study period and all tumor tissues were collected for histology for tumor characterization. Immunoblots were used to detect levels of for NANOG, TBC1D15, NICD, HES1 or HEY, CD133, p53, NUMB, and pS265-NUMB (FIG. 7G). Immunohistochemistry analysis was performed to monitor the expression of CD133, NANOG, p53, and Ki67.

[8] = tested on: dsRed-labeled TICs; test: Tumor growth of dsRed-labeled TICs transplanted subcutaneously into NSG mice; format: in vivo; conditions: for tumors with fluorescence emission (dsRed imaging): FIG. 7E
Description: as §1
We tested the therapeutic efficacy of Inhibitor A in the patient-derived xenograft (PDX) model of HCC. […] A separate pharmacokinetic study was conducted at three doses (10, 20, 40 mg/kg) administered i.p. into NSG mice to determine blood and tissue levels of the Inhibitor and tissue histology. From these studies, we assessed pharmacokinetic, toxicity, and efficacy data to select an optimal dosing scheme.

[9] = tested on: CD133-positive TICs / CD133+ Huh7 cells; test: Viability screening, CD133-positive cells; format: cell-based; conditions: FIG. 7C middle
[10] = molecular target: T1, TBC1D15-NOTCH interaction (Homo sapiens, UniProt Q8TC07); test: Fluorescence polarization assay of FITC-tagged NOTCH1 PEST/STR domain peptide with recombinant TBC1D15; format: binding; conditions: FIG. 7C left
T1 sequence (Q8TC07 1-691): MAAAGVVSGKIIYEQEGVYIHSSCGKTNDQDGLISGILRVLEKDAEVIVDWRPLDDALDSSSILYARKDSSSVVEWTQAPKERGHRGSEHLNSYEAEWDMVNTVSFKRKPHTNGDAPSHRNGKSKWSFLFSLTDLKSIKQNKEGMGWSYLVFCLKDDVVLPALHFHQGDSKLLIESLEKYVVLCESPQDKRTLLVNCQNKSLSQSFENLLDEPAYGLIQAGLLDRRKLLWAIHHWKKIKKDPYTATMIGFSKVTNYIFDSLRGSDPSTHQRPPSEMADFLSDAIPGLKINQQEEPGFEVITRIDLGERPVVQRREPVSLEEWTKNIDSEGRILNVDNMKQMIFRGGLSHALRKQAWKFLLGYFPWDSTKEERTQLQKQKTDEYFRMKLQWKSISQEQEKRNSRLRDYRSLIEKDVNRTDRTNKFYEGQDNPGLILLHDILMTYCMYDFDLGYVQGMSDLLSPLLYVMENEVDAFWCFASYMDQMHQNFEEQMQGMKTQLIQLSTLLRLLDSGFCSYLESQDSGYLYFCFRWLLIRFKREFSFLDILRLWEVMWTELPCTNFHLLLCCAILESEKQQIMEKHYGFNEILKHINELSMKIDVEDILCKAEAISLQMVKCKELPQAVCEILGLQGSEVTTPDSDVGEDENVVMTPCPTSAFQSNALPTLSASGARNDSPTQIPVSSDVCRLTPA
Description: FIGS. 7A-7G depict that activated NOTCH can be targeted by small molecule inhibitors. • (7A) Analyses of 3D structure of TBC1D15-NOTCH1 interaction identified TBC1D15 N terminal region docking with a.a.1805-2113 of NOTCH1. […] See SEQ ID NOs:6-12 and 1, as depicted. Both were labeled with FITC and used with recombinant TBC1D15 for fluorescence polarization assay. The mutant served as a negative control. […] HA-NUMB-3D is HA-tagged phosphor-mimetic mutant of NUMB protein wherein three serine resides of phosphorylation sites are all replaced with phosphor-mimetic amino acid, D (aspartic acid), to have constitutively phosphorylated status of NUMB protein that reduce the binding ability between NOTCH and NUMB. […]
In some embodiments, an inhibitor of TBC1D15 is a compound that inhibits binding of TBC1D15 with NOTCH, or inhibits the interaction between TBC1D15 and NOTCH. […] In yet another aspect, the inhibitor of TBC1D15 can be identified through a fluorescence polarization assay, wherein a fluorophore-labeled, binding domain of NOTCH1 (e.g., the STR domain or the PEST domain, or a peptide fragment thereof, within NICD) would have an increased fluorescence polarization (FP) when it is non-covalently bound to TBC1D15, as depicted in FIG. 7B, or a decreased FP when it is not bound to TBC1D15 due to the presence of an inhibitor of TBC1D15. […]

## C[C@H](NC(=O)Cc1cc(F)cc(F)c1)C(=O)N[C@H](C(=O)OC(C)(C)C)c1ccccc1 [DAPT, N—[N-(3,5-Difluorophenacetyl)-L-alanyl]-S-phenylglycine t-butyl ester]
[1]
  effect on NICD level: no observed effect on NICD level

## O=C(O)CCC/C=C\C[C@@H]1[C@@H](CC[C@@H](O)CCc2ccccc2)[C@H](O)C[C@@H]1O [Inhibitor A, (5Z,9α, 11α, 15R)-9,11,15-Trihydroxy-17-phenyl-18,19,20-trinor-prost-5-en-1-oic acid]
[2]
  toxicity to CD133-negative cells: not CD133^− Huh7 cells
[3]; HCC tissues infected with AAV vector delivering N1ICD and HA-NUMB-3D before transplantation
  growth suppression of patient HCC after N1ICD and HA-NUMB-3D co-transduction: this effect largely diminished
[3]; NICD overexpression
  therapeutic effect under NICD overexpression: NICD overexpression blocked the therapeutic effect
[3]; PDX model, FIG. 7F
  growth of patient HCC transplanted into NSG mice: suppressed the growth of patient HCC
[4]
  toxicity to primary hepatocytes: not CD133^− Huh7 cells or primary hepatocytes
[5]
  NANOG-GFP / NANOG promoter reporter activity: reduced HEY1 and NANOG promoter activities; also recorded: abrogates NOTCH-CFP and NANOG-GFP reporter activities
[6]
  NOTCH-CFP / HEY1 promoter reporter activity: reduced HEY1 and NANOG promoter activities; also recorded: abrogates NOTCH-CFP and NANOG-GFP reporter activities
[7]
  N1ICD protein level in xenograft tumors: reduced N1ICD and NANOG protein levels
  NANOG protein level in xenograft tumors: reduced N1ICD and NANOG protein levels
  p53 protein level in xenograft tumors: elevated p53 protein level
[8]; 10 mg/kg dose
  tumors with fluorescence emission (dsRed imaging): Tumors with fluorescence emission were detected
[8]; 40 mg/kg i.p. 5 times a week
  inhibition of tumor growth: significant inhibition of tumor growth
[8]; dose series, NSG mice with dsRed-labeled TICs, FIG. 7D
  effect on tumor growth: dose-dependent inhibitory effect
[8]; doses higher than 10 mg/kg
  tumors with fluorescence emission (dsRed imaging): not in those treated with higher doses
[9]
  toxicity to CD133-positive cells: selectively killed CD133 positive TICs; also recorded: selectively kills CD133^+ Huh7 cells
[10]
  inhibition of NOTCH-TBC1D15 interaction: effectively blocked the NOTCH-TBC1D15 interaction; also recorded: suppressed interaction between TBC1D15 and NICD; also recorded: blocked NOTCH1/3-TBC1D15 interactions
